Values of other authors, collected in patent US11559485B2 (NANOCOPOEIA, LLC, priority 2020, dated 2023).
Where a name gives a salt, the structure may show the parent alone.

Conditions: low/moderate aqueous solubility and low permeability

BCS class: Class IV
Structure (SMILES): Cc1cn(-c2cc(NC(=O)c3ccc(C)c(Nc4nccc(-c5cccnc5)n4)c3)cc(C(F)(F)F)c2)cn1 [Nilotinib monohydrochloride monohydrate]
